Holding throughout (assay type): cell-based
The target in assay [1] is T1, von Hippel-Lindau disease tumor suppressor/Protein arginine N-methyltransferase 5 (Homo sapiens, UniProt O14744+P40337). Briefly: PROTAC activity at […]/VHL in human MDA-MB-468 cells assessed as relative protein level at 0.5 uM measured after 24 hrs by Western blot analysis. Background: A western blot detects proteins with antibodies after separation by electrophoresis.

Assay [2] addresses T1, von Hippel-Lindau disease tumor suppressor/Protein arginine N-methyltransferase 5. Briefly: PROTAC activity at PRMT5/VHL in human MDA-MB-468 cells assessed as relative protein level at 5 uM measured after 24 hrs by Western blot analysis.
For assay [3], the target named is T2, von Hippel-Lindau disease tumor suppressor/Methylosome protein WDR77 (Homo sapiens, UniProt Q9BQA1+P40337). Briefly: PROTAC activity at MEP50/VHL in human MDA-MB-468 cells assessed as relative protein level at 0.5 uM measured after 24 hrs by Western blot analysis.
T2 sequence (P40337 whole entry, looked up): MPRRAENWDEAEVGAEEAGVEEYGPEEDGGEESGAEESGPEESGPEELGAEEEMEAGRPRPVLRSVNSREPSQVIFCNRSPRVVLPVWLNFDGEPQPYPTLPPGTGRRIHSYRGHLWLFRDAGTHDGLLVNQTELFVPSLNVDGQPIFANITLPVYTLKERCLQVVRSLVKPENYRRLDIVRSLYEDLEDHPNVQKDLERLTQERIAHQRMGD
T2 sequence (Q9BQA1 whole entry, looked up): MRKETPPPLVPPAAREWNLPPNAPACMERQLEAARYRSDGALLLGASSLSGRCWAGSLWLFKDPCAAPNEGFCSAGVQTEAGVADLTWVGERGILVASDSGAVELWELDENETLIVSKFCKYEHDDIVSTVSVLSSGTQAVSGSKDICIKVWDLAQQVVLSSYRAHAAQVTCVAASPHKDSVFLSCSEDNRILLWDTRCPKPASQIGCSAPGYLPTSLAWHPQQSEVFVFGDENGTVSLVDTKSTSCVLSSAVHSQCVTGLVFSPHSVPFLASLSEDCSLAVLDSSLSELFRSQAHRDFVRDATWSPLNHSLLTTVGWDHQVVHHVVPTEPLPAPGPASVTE
Assay [4] addresses T2, von Hippel-Lindau disease tumor suppressor/Methylosome protein WDR77. Briefly: PROTAC activity at MEP50/VHL in human MDA-MB-468 cells assessed as relative protein level at 5 uM measured after 24 hrs by Western blot analysis.

Structures are written as SMILES. Active and inactive are the calls of the source. No cut-off for these calls is given here.

T1 sequence (O14744 whole entry, looked up): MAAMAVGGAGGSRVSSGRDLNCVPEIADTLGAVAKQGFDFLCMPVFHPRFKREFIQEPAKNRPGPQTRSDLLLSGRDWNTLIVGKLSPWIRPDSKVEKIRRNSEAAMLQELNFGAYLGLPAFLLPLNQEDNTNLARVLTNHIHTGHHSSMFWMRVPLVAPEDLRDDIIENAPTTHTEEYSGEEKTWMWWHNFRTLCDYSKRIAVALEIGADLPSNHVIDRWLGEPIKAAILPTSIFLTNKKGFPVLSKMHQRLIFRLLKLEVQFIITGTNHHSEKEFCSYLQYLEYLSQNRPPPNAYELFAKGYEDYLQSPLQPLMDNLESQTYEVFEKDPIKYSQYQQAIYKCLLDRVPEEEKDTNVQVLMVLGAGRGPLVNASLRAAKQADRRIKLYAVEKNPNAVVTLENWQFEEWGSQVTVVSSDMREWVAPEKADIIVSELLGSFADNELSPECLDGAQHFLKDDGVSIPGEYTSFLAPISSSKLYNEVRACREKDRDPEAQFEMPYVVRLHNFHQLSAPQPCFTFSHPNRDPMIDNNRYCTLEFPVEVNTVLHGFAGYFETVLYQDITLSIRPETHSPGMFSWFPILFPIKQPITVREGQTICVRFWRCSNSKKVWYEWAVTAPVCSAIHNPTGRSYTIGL
T1 sequence (P40337 whole entry, looked up): as the sequence (P40337 whole entry, looked up) above

Regarding `Cc1ncsc1-c1ccc(CNC(=O)[C@@H]2C[C@@H](O)CN2C(=O)[C@@H](NC(=O)C2(F)CC2)C(C)(C)C)c(OCC(=O)N2CCC(Nc3cc(C(=O)NC[C@H](O)CN4CCc5ccccc5C4)ncn3)CC2)c1`, the outcome in assay [1], in assay [2], in assay [3] and in assay [4] was Active.
As for `Cc1ncsc1-c1ccc([C@H](CC(=O)NCCCCCCCC(=O)N2CCC(Nc3cc(C(=O)NC[C@H](O)CN4CCc5ccccc5C4)ncn3)CC2)NC(=O)[C@@H]2C[C@@H](O)CN2C(=O)[C@@H](NC(=O)C2(F)CC2)C(C)(C)C)cc1`, the outcome in assay [1], in assay [2], in assay [3] and in assay [4] was Active.
As to `Cc1ncsc1-c1ccc([C@H](CC(=O)NCCC(=O)N2CCC(Nc3cc(C(=O)NC[C@H](O)CN4CCc5ccccc5C4)ncn3)CC2)NC(=O)[C@@H]2C[C@@H](O)CN2C(=O)[C@@H](NC(=O)C2(F)CC2)C(C)(C)C)cc1`, the result in assay [1], in assay [2], in assay [3] and in assay [4] was Active.
`Cc1ncsc1-c1ccc([C@H](CC(=O)NCCCCC(=O)N2CCC(Nc3cc(C(=O)NC[C@H](O)CN4CCc5ccccc5C4)ncn3)CC2)NC(=O)[C@@H]2C[C@@H](O)CN2C(=O)[C@@H](NC(=O)C2(F)CC2)C(C)(C)C)cc1`: the outcome in assay [1], in assay [2], in assay [3] and in assay [4] was Active.
Regarding `Cc1ncsc1-c1ccc([C@H](CC(=O)NCCOCCOCCOCCC(=O)N2CCC(Nc3cc(C(=O)NC[C@H](O)CN4CCc5ccccc5C4)ncn3)CC2)NC(=O)[C@@H]2C[C@@H](O)CN2C(=O)[C@@H](NC(=O)C2(F)CC2)C(C)(C)C)cc1`, the result in assay [1], in assay [2], in assay [3] and in assay [4] was Active.
`Cc1ncsc1-c1ccc([C@H](C)NC(=O)[C@@H]2C[C@@H](O)CN2C(=O)[C@@H](NC(=O)COCCOCCOCCOCCOCC(=O)N2CCC(Nc3cc(C(=O)NC[C@H](O)CN4CCc5ccccc5C4)ncn3)CC2)C(C)(C)C)cc1`: the outcome in assay [1], in assay [2], in assay [3] and in assay [4] was Active.
As for `Cc1ncsc1-c1ccc(CNC(=O)[C@@H]2C[C@@H](O)CN2C(=O)[C@@H](NC(=O)C2(F)CC2)C(C)(C)C)c(OCC(=O)NCCC(=O)N2CCC(Nc3cc(C(=O)NC[C@H](O)CN4CCc5ccccc5C4)ncn3)CC2)c1`, the outcome in assay [1], in assay [2], in assay [3] and in assay [4] was Active.
As to `Cc1ncsc1-c1ccc([C@H](CC(=O)N2CCC(Nc3cc(C(=O)NC[C@H](O)CN4CCc5ccccc5C4)ncn3)CC2)NC(=O)[C@@H]2C[C@@H](O)CN2C(=O)[C@@H](NC(=O)C2(F)CC2)C(C)(C)C)cc1`, the outcome in assay [1], in assay [2], in assay [3] and in assay [4] was Active.
As for `Cc1ncsc1-c1ccc([C@H](C)NC(=O)[C@@H]2C[C@@H](O)CN2C(=O)[C@@H](NC(=O)CCOCCOCCOCCOCCC(=O)N2CCC(Nc3cc(C(=O)NC[C@H](O)CN4CCc5ccccc5C4)ncn3)CC2)C(C)(C)C)cc1`, the result in assay [1], in assay [2], in assay [3] and in assay [4] was Active.
As for `Cc1ncsc1-c1ccc([C@H](CC(=O)NCCOCCC(=O)N2CCC(Nc3cc(C(=O)NC[C@H](O)CN4CCc5ccccc5C4)ncn3)CC2)NC(=O)[C@@H]2C[C@@H](O)CN2C(=O)[C@@H](NC(=O)C2(F)CC2)C(C)(C)C)cc1`, the outcome in assay [1], in assay [2], in assay [3] and in assay [4] was inactive.
On to `Cc1ncsc1-c1ccc([C@H](CC(=O)NCCCCCC(=O)N2CCC(Nc3cc(C(=O)NC[C@H](O)CN4CCc5ccccc5C4)ncn3)CC2)NC(=O)[C@@H]2C[C@@H](O)CN2C(=O)[C@@H](NC(=O)C2(F)CC2)C(C)(C)C)cc1`, for which the outcome in assay [1], in assay [2], in assay [3] and in assay [4] was Active.
Turning to `Cc1ncsc1-c1ccc(CNC(=O)[C@@H]2C[C@@H](O)CN2C(=O)[C@@H](NC(=O)C2(F)CC2)C(C)(C)C)c(OCC(=O)NCCCCCC(=O)N2CCC(Nc3cc(C(=O)NC[C@H](O)CN4CCc5ccccc5C4)ncn3)CC2)c1`, the result in assay [1], in assay [2], in assay [3] and in assay [4] was Active.
`Cc1ncsc1-c1ccc([C@H](C)NC(=O)[C@@H]2C[C@@H](O)CN2C(=O)[C@@H](NC(=O)COCCOCCOCCOCCOCC(=O)N2CC(Nc3cc(C(=O)NC[C@H](O)CN4CCc5ccccc5C4)ccn3)C2)C(C)(C)C)cc1`: the outcome in assay [1], in assay [2] and in assay [3] was inactive. In assay [4], the outcome was Active.
As for `Cc1ncsc1-c1ccc(CNC(=O)[C@@H]2C[C@@H](O)CN2C(=O)[C@@H](NC(=O)C2(F)CC2)C(C)(C)C)c(OCC(=O)NCCCCC(=O)N2CCC(Nc3cc(C(=O)NC[C@H](O)CN4CCc5ccccc5C4)ncn3)CC2)c1`, the result in assay [1], in assay [2], in assay [3] and in assay [4] was Active.
`Cc1ncsc1-c1ccc(CNC(=O)[C@@H]2C[C@@H](O)CN2C(=O)[C@@H](NC(=O)C2(F)CC2)C(C)(C)C)c(OCC(=O)NCCOCCOCCC(=O)N2CCC(Nc3cc(C(=O)NC[C@H](O)CN4CCc5ccccc5C4)ncn3)CC2)c1`: the outcome in assay [1], in assay [2], in assay [3] and in assay [4] was inactive.
As for `Cc1ncsc1-c1ccc(CNC(=O)[C@@H]2C[C@@H](O)CN2C(=O)[C@@H](NC(=O)C2(F)CC2)C(C)(C)C)c(OCC(=O)NCCOCCOCCOCCOCCOCCC(=O)N2CCC(Nc3cc(C(=O)NC[C@H](O)CN4CCc5ccccc5C4)ncn3)CC2)c1`, the outcome in assay [1], in assay [2] and in assay [3] was inactive. Further, the result in assay [4] was Active.
Turning to `Cc1ncsc1-c1ccc([C@H](CC(=O)NCCOCCOCCC(=O)N2CCC(Nc3cc(C(=O)NC[C@H](O)CN4CCc5ccccc5C4)ncn3)CC2)NC(=O)[C@@H]2C[C@@H](O)CN2C(=O)[C@@H](NC(=O)C2(F)CC2)C(C)(C)C)cc1`, the result in assay [1], in assay [2], in assay [3] and in assay [4] was Active.
For the compound `Cc1ncsc1-c1ccc(CNC(=O)[C@@H]2C[C@@H](O)CN2C(=O)[C@@H](NC(=O)C2(F)CC2)C(C)(C)C)c(OCC(=O)NCCOCCOCCOCCOCCC(=O)N2CCC(Nc3cc(C(=O)NC[C@H](O)CN4CCc5ccccc5C4)ncn3)CC2)c1`, the outcome in assay [1], in assay [2] and in assay [3] was inactive. In addition, the result in assay [4] was Active.
On to `Cc1ncsc1-c1ccc([C@H](C)NC(=O)[C@@H]2C[C@@H](O)CN2C(=O)[C@@H](NC(=O)CCOCCOCCOCCOCCOCCC(=O)N2CCC(Nc3cc(C(=O)NC[C@H](O)CN4CCc5ccccc5C4)ncn3)CC2)C(C)(C)C)cc1`, for which the outcome in assay [1], in assay [2], in assay [3] and in assay [4] was Active.
As for `Cc1ncsc1-c1ccc(CNC(=O)[C@@H]2C[C@@H](O)CN2C(=O)[C@@H](NC(=O)C2(F)CC2)C(C)(C)C)c(OCC(=O)NCCOCCC(=O)N2CCC(Nc3cc(C(=O)NC[C@H](O)CN4CCc5ccccc5C4)ncn3)CC2)c1`, the outcome in assay [1], in assay [2], in assay [3] and in assay [4] was Active.
Take `Cc1ncsc1-c1ccc(CNC(=O)[C@@H]2C[C@@H](O)CN2C(=O)[C@@H](NC(=O)C2(F)CC2)C(C)(C)C)c(OCC(=O)NCC(=O)N2CCC(Nc3cc(C(=O)NC[C@H](O)CN4CCc5ccccc5C4)ncn3)CC2)c1`: the outcome in assay [1], in assay [2], in assay [3] and in assay [4] was Active.
`Cc1ncsc1-c1ccc([C@H](CC(=O)NCCCC(=O)N2CCC(Nc3cc(C(=O)NC[C@H](O)CN4CCc5ccccc5C4)ncn3)CC2)NC(=O)[C@@H]2C[C@@H](O)CN2C(=O)[C@@H](NC(=O)C2(F)CC2)C(C)(C)C)cc1`: the result in assay [1], in assay [2], in assay [3] and in assay [4] was Active.
Take `Cc1ncsc1-c1ccc([C@H](CC(=O)NCCCCCCC(=O)N2CCC(Nc3cc(C(=O)NC[C@H](O)CN4CCc5ccccc5C4)ncn3)CC2)NC(=O)[C@@H]2C[C@@H](O)CN2C(=O)[C@@H](NC(=O)C2(F)CC2)C(C)(C)C)cc1`: the outcome in assay [1], in assay [2], in assay [3] and in assay [4] was Active.
